These results are taken from patent US11034650B2, “Compounds useful for treating a Mannheimia haemolytica or Histophilus somni infection” (Intervet Inc., priority 2016, dated 2021).

Values after ≈ are worked out from the molar mass of the structure shown.

For one assay, the system named is Mannheimia haemolytica MH 6357 (M7/2, reference strain, cattle infection strain). Nature of the assay: MIC, broth-microdilution (CLSI VET01-A4), strain MH 6357. In kind it is cell-based. To be noted: Mannheimia haemolytica strain MH 6357, broth-microdilution; unit assumed. An outline of the steps: (§1)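 Growth inhibition is scored visually on a doubling dilution series. The reported MIC corresponds to the lowest concentration free of turbidity, with results assessed under CLSI VET01-S3.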
Background: Dilution methods test growth across graded concentrations, often in twofold steps.
`CSC(C)(C)[C@H](NC(=O)c1ccc(C#Cc2ccc(CNCc3ccnc(Cl)c3)cc2)cc1)C(=O)NO` [Compound 248] displayed an MIC MH 6357 of 1.6 µg/mL (≈ 2.98 µM).

Compound `C=CCNCc1ccc(C#Cc2ccc(C(=O)N[C@H](C(=O)NO)C(C)(C)SC)cc2)s1` [Compound 301] showed an MIC MH 6357 of 0.4 µg/mL (≈ 0.874 µM).

`CC(C)([C@H](NC(=O)c1ccc(C#Cc2ccc(CNCc3ncccn3)nc2)cc1)C(=O)NO)S(C)(=O)=O` [Compound 356] returned an MIC MH 6357 of 6.3 µg/mL (≈ 11.7 µM).

For `COCCNCc1ccc(C#Cc2ccc(C(=O)N[C@H](C(=O)NO)C(C)(C)O)cc2)cc1` [Compound 221], the MIC MH 6357 was determined as 0.8 µg/mL (≈ 1.82 µM).

The next assay deals with Mannheimia haemolytica MH 6374 (ATCC 33396, reference strain). Nature of the assay: MIC, broth-microdilution (CLSI VET01-A4), strain MH 6374. The assay is classed as cell-based. Particulars: Mannheimia haemolytica strain MH 6374, broth-microdilution; unit assumed. An outline of the steps: as §1
In turn, `CSC(C)(C)[C@H](NC(=O)c1ccc(C#Cc2ccc(CNCc3ccnc(Cl)c3)cc2)cc1)C(=O)NO` [Compound 248] displayed an MIC MH 6374 of 1.6 µg/mL (≈ 2.98 µM).

Take `C=CCNCc1ccc(C#Cc2ccc(C(=O)N[C@H](C(=O)NO)C(C)(C)SC)cc2)s1` [Compound 301]: the MIC MH 6374 was found to be 0.8 µg/mL (≈ 1.75 µM).

For `CC(C)([C@H](NC(=O)c1ccc(C#Cc2ccc(CNCc3ncccn3)nc2)cc1)C(=O)NO)S(C)(=O)=O` [Compound 356], the MIC MH 6374 is 6.3 µg/mL (≈ 11.7 µM).

In turn, `COCCNCc1ccc(C#Cc2ccc(C(=O)N[C@H](C(=O)NO)C(C)(C)O)cc2)cc1` [Compound 221] gave an MIC MH 6374 of 0.8 µg/mL (≈ 1.82 µM).

A further assay concerns Mannheimia haemolytica MH 10720 (154, BRD field isolate). Nature of the assay: MIC, broth-microdilution (CLSI VET01-A4), strain MH 10720. The assay is classed as cell-based. Particulars: Mannheimia haemolytica strain MH 10720, broth-microdilution; unit assumed. A digest of the protocol:
as §1
Take `CSC(C)(C)[C@H](NC(=O)c1ccc(C#Cc2ccc(CNCc3ccnc(Cl)c3)cc2)cc1)C(=O)NO` [Compound 248]: the MIC MH 10720 came to 0.4 µg/mL (≈ 0.745 µM).

`C=CCNCc1ccc(C#Cc2ccc(C(=O)N[C@H](C(=O)NO)C(C)(C)SC)cc2)s1` [Compound 301] came in with an MIC MH 10720 not above 0.1 µg/mL.

With `CC(C)([C@H](NC(=O)c1ccc(C#Cc2ccc(CNCc3ncccn3)nc2)cc1)C(=O)NO)S(C)(=O)=O` [Compound 356], the MIC MH 10720 was determined as 3.1 µg/mL (≈ 5.78 µM).

Turning to `COCCNCc1ccc(C#Cc2ccc(C(=O)N[C@H](C(=O)NO)C(C)(C)O)cc2)cc1` [Compound 221], the MIC MH 10720 is not above 0.1 µg/mL.

The test system of another assay is Mannheimia haemolytica MH 12587 (1071, BRD field isolate, macrolide-resistance: erm+, E+). Nature of the assay: MIC, broth-microdilution (CLSI VET01-A4), strain MH 12587. In kind it is cell-based. To be noted: Mannheimia haemolytica strain MH 12587, broth-microdilution; unit assumed. A digest of the protocol: as §1
In the case of `CSC(C)(C)[C@H](NC(=O)c1ccc(C#Cc2ccc(CNCc3ccnc(Cl)c3)cc2)cc1)C(=O)NO` [Compound 248], the MIC MH 12587 worked out at 1.6 µg/mL (≈ 2.98 µM).

Compound `C=CCNCc1ccc(C#Cc2ccc(C(=O)N[C@H](C(=O)NO)C(C)(C)SC)cc2)s1` [Compound 301] registered an MIC MH 12587 of 0.8 µg/mL (≈ 1.75 µM).

Compound `CC(C)([C@H](NC(=O)c1ccc(C#Cc2ccc(CNCc3ncccn3)nc2)cc1)C(=O)NO)S(C)(=O)=O` [Compound 356] gave an MIC MH 12587 of 12.5 µg/mL (≈ 23.3 µM).

On to `COCCNCc1ccc(C#Cc2ccc(C(=O)N[C@H](C(=O)NO)C(C)(C)O)cc2)cc1` [Compound 221], for which the MIC MH 12587 is 3.1 µg/mL (≈ 7.05 µM).

The test system of a further assay is Mannheimia haemolytica MH 13065 (XB0446-6003.9, BRD field isolate). Nature of the assay: MIC, broth-microdilution (CLSI VET01-A4), strain MH 13065. In kind it is cell-based. Particulars: Mannheimia haemolytica strain MH 13065, broth-microdilution; unit assumed. A digest of the protocol:
as §1
In turn, `CSC(C)(C)[C@H](NC(=O)c1ccc(C#Cc2ccc(CNCc3ccnc(Cl)c3)cc2)cc1)C(=O)NO` [Compound 248] displayed an MIC MH 13065 of 1.6 µg/mL (≈ 2.98 µM).

`C=CCNCc1ccc(C#Cc2ccc(C(=O)N[C@H](C(=O)NO)C(C)(C)SC)cc2)s1` [Compound 301] gave an MIC MH 13065 of 0.4 µg/mL (≈ 0.874 µM).

In turn, `CC(C)([C@H](NC(=O)c1ccc(C#Cc2ccc(CNCc3ncccn3)nc2)cc1)C(=O)NO)S(C)(=O)=O` [Compound 356] had an MIC MH 13065 of 6.3 µg/mL (≈ 11.7 µM).

`COCCNCc1ccc(C#Cc2ccc(C(=O)N[C@H](C(=O)NO)C(C)(C)O)cc2)cc1` [Compound 221] returned an MIC MH 13065 of 1.6 µg/mL (≈ 3.64 µM).

The next assay concerns Mannheimia haemolytica MH 13093 (XB0472-6014.1, BRD field isolate). Description: MIC, broth-microdilution (CLSI VET01-A4), strain MH 13093. In kind it is cell-based. Particulars: Mannheimia haemolytica strain MH 13093, broth-microdilution; unit assumed. A digest of the protocol: as §1
On to `CSC(C)(C)[C@H](NC(=O)c1ccc(C#Cc2ccc(CNCc3ccnc(Cl)c3)cc2)cc1)C(=O)NO` [Compound 248], for which the MIC MH 13093 came out at 1.6 µg/mL (≈ 2.98 µM).

Compound `C=CCNCc1ccc(C#Cc2ccc(C(=O)N[C@H](C(=O)NO)C(C)(C)SC)cc2)s1` [Compound 301] yielded an MIC MH 13093 of 0.8 µg/mL (≈ 1.75 µM).

`CC(C)([C@H](NC(=O)c1ccc(C#Cc2ccc(CNCc3ncccn3)nc2)cc1)C(=O)NO)S(C)(=O)=O` [Compound 356] gave an MIC MH 13093 of 12.5 µg/mL (≈ 23.3 µM).

As to `COCCNCc1ccc(C#Cc2ccc(C(=O)N[C@H](C(=O)NO)C(C)(C)O)cc2)cc1` [Compound 221], the MIC MH 13093 came to 1.6 µg/mL (≈ 3.64 µM).

Another assay has as its system Pasteurella multocida PM 6267 (P 2225 (L386), reference strain, mouse infection strain). Nature of the assay: MIC, broth-microdilution (CLSI VET01-A4), strain PM 6267. In kind it is cell-based. To be noted: Pasteurella multocida strain PM 6267, broth-microdilution; unit assumed. An outline of the steps:
as §1
In turn, `CSC(C)(C)[C@H](NC(=O)c1ccc(C#Cc2ccc(CNCc3ccnc(Cl)c3)cc2)cc1)C(=O)NO` [Compound 248] yielded an MIC PM 6267 of 0.4 µg/mL (≈ 0.745 µM).

For the compound `C=CCNCc1ccc(C#Cc2ccc(C(=O)N[C@H](C(=O)NO)C(C)(C)SC)cc2)s1` [Compound 301], the MIC PM 6267 turned out to be 0.4 µg/mL (≈ 0.874 µM).

On to `CC(C)([C@H](NC(=O)c1ccc(C#Cc2ccc(CNCc3ncccn3)nc2)cc1)C(=O)NO)S(C)(=O)=O` [Compound 356], for which the MIC PM 6267 came out at 6.3 µg/mL (≈ 11.7 µM).

Turning to `COCCNCc1ccc(C#Cc2ccc(C(=O)N[C@H](C(=O)NO)C(C)(C)O)cc2)cc1` [Compound 221], the MIC PM 6267 was not above 0.1 µg/mL.

The next assay has as its system Pasteurella multocida PM 6391 (ATCC 43137, reference strain). Description: MIC, broth-microdilution (CLSI VET01-A4), strain PM 6391. In kind it is cell-based. To be noted: Pasteurella multocida strain PM 6391, broth-microdilution; unit assumed. A digest of the protocol: as §1
For `CSC(C)(C)[C@H](NC(=O)c1ccc(C#Cc2ccc(CNCc3ccnc(Cl)c3)cc2)cc1)C(=O)NO` [Compound 248], the MIC PM 6391 came out at 0.8 µg/mL (≈ 1.49 µM).

Compound `C=CCNCc1ccc(C#Cc2ccc(C(=O)N[C@H](C(=O)NO)C(C)(C)SC)cc2)s1` [Compound 301] gave an MIC PM 6391 of 1.6 µg/mL (≈ 3.5 µM).

Regarding `CC(C)([C@H](NC(=O)c1ccc(C#Cc2ccc(CNCc3ncccn3)nc2)cc1)C(=O)NO)S(C)(=O)=O` [Compound 356], the MIC PM 6391 is 3.1 µg/mL (≈ 5.78 µM).

Turning to `COCCNCc1ccc(C#Cc2ccc(C(=O)N[C@H](C(=O)NO)C(C)(C)O)cc2)cc1` [Compound 221], the MIC PM 6391 came to 0.4 µg/mL (≈ 0.91 µM).

Another assay deals with Pasteurella multocida PM 10775 (080130003051, BRD field isolate). Description: MIC, broth-microdilution (CLSI VET01-A4), strain PM 10775. Particulars: Pasteurella multocida strain PM 10775, broth-microdilution; unit assumed. The assay is classed as cell-based. A digest of the protocol: as §1
In turn, `CSC(C)(C)[C@H](NC(=O)c1ccc(C#Cc2ccc(CNCc3ccnc(Cl)c3)cc2)cc1)C(=O)NO` [Compound 248] returned an MIC PM 10775 of 0.2 µg/mL (≈ 0.372 µM).

Regarding `C=CCNCc1ccc(C#Cc2ccc(C(=O)N[C@H](C(=O)NO)C(C)(C)SC)cc2)s1` [Compound 301], the MIC PM 10775 is not above 0.1 µg/mL.

The compound `CC(C)([C@H](NC(=O)c1ccc(C#Cc2ccc(CNCc3ncccn3)nc2)cc1)C(=O)NO)S(C)(=O)=O` [Compound 356] yielded an MIC PM 10775 of 0.2 µg/mL (≈ 0.373 µM).

Consider `COCCNCc1ccc(C#Cc2ccc(C(=O)N[C@H](C(=O)NO)C(C)(C)O)cc2)cc1` [Compound 221], for which the MIC PM 10775 was not above 0.1 µg/mL.

The test system of another assay is Pasteurella multocida PM 12080 (IV102277-0093, BRD field isolate). Description: MIC, broth-microdilution (CLSI VET01-A4), strain PM 12080. The assay is classed as cell-based. To be noted: Pasteurella multocida strain PM 12080, broth-microdilution; unit assumed. A digest of the protocol:
as §1
The compound `CSC(C)(C)[C@H](NC(=O)c1ccc(C#Cc2ccc(CNCc3ccnc(Cl)c3)cc2)cc1)C(=O)NO` [Compound 248] returned an MIC PM 12080 of 0.8 µg/mL (≈ 1.49 µM).

`C=CCNCc1ccc(C#Cc2ccc(C(=O)N[C@H](C(=O)NO)C(C)(C)SC)cc2)s1` [Compound 301]: the MIC PM 12080 came to 0.4 µg/mL (≈ 0.874 µM).

Turning to `CC(C)([C@H](NC(=O)c1ccc(C#Cc2ccc(CNCc3ncccn3)nc2)cc1)C(=O)NO)S(C)(=O)=O` [Compound 356], the MIC PM 12080 turned out to be 1.6 µg/mL (≈ 2.98 µM).

`COCCNCc1ccc(C#Cc2ccc(C(=O)N[C@H](C(=O)NO)C(C)(C)O)cc2)cc1` [Compound 221] yielded an MIC PM 12080 of 0.4 µg/mL (≈ 0.91 µM).
